The compounds below were run against human matriptase (Homo sapiens, UniProt Q9Y5Y6) (assay: Assay for inhibition of matriptase (fluorogenic substrate Boc-Gln-Ala-Arg-AMC)). Details: residual matriptase activity in presence of test compound; hydrolysis of Boc-Gln-Ala-Arg-AMC; 10 μM for initial screening per method.
Chain of human matriptase (Q9Y5Y6 615-855 limits assumed, other chains not shown): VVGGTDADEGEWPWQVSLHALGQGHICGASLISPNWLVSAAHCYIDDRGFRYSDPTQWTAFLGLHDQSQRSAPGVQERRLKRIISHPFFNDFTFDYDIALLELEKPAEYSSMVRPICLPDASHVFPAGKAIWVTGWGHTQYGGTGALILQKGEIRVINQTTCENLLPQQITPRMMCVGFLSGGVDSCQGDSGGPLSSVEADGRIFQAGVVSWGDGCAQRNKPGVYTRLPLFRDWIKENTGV
Type: biochemical
From the text: The following describes an assay for matriptase as a representative serine protease and is based upon reported methods. (Désilets, A.; Longpré, J.-M.; Beaulieu, M.-E.; Leduc, R. FEBS Lett. 2006, 580, 2227-2232.) Similar assays are applicable and available for other serine proteases.
Enzyme activities were monitored by measuring the release of fluorescence from AMC-coupled peptides (excitation, 360 nm; emission, 441 nm) in a FLX-800 TBE microplate reader (Bio-Tek Instruments, Winooski, Vt., USA). The purified human matriptase was active site titrated with the burst titrant 4-methylumbelliferyl-p-guanidino benzoate (MUGB). Enzymatic assays with matriptase were performed in Tris-HCl 100 mM containing 500 µg/mL BSA at pH 9. Human soluble furin was expressed, purified, titrated and assayed as described in the literature (Denault, J. B.; Lazure, C.; Day, R; Leduc, R. Protein Expr. Purif. 2000, 19, 113-124.) The purified HAT protein was active-site titrated with MUGB. Assays with HAT were performed in 50 mM Tris-HCl at pH 8.6.
Enzymes were diluted to concentrations ranging from 4 to 12.5 nM for furin, from 2 to 7 nM for matriptase and 20 pM for HAT and incubated with either 10 μM (for initial screening) […] or appropriate dilutions (for kinetic analysis), for example 0, 500, 1000, 2000 nM or 0, 250, 500, 1000, 2500, 5000 nM, of the test compound for 15 min at RT. Residual enzyme activity was measured by following the hydrolysis of a fluorogenic substrate (4 μM Boc-Arg-Val-Arg-Arg-AMC for furin, Boc-Gln-Ala-Arg-AMC for matriptase and 4 μM Boc-Val-Pro-Arg-AMC for HAT) (Bachem Bioscience, King of Prussia, Pa., USA). Saturation curves were performed in the presence of increasing concentrations of test compounds. Data from three independent experiments or more were typically averaged and residual velocities were plotted as a function of test compound concentration. Data were fitted by non-linear regression analysis to Equation (1) (Bieth, J. G. Methods Enzymol. 1995, 248, 59-84.) using the Enzfitter software (Biosoft, Ferguson, Mo., USA).
vi/v0=1−{([E]0+[I]0+Ki(app))−(([E]0+[I]0+Ki(app))^2−4[E]0[I]0)^1/2}/2[E]0 Equation (1): […]
where v0 and vi are the steady-state rates of substrate hydrolysis in the absence and presence of inhibitor, respectively, [E]0, the initial concentration of enzyme, [I]0, the initial concentration of inhibitor and Ki(app) the substrate-dependent equilibrium dissociation constant. The substrate-independent constant Ki was calculated using Equation (2) (Bieth, J. G. Methods Enzymol. 1995, 248, 59-84.),
Ki=Ki(app)(1+[S]0/Km) Equation (2): […]
The table presents results for matriptase inhibition for representative compounds of the invention.
Ki's can be calculated from the velocity using nonlinear regression analysis. The model used is a competitive enzyme inhibition equation where KmObs=Km*(1+[I]/Ki) and Y=Vmax*X/(KmObs+X). X is the substrate concentration. Y the velocity.
With C[C@@H]1C(=O)N[C@H](Cc2cscn2)C(=O)NCCCc2ccc(F)cc2OCCN[C@@H](C2CC2)C(=O)N1C [Compound 496] the “Velocity (FU/min)” value was 2700 FU/min.
In the case of C[C@@H]1NCCOc2cc(F)ccc2CCCNC(=O)[C@@H](Cc2ccc(C(=N)N)cc2)NC(=O)[C@@H](C)N(C)C1=O [Compound 467], the “Velocity (FU/min)” value was 2300 FU/min.
For C[C@@H]1CN[C@@H](C2CC2)C(=O)N(C)[C@H](C)C(=O)N[C@H](Cc2ccc(C(N)=O)cc2)C(=O)NCCCc2ccccc2O1 [Compound 498], the “Velocity (FU/min)” value was 580 FU/min.
C[C@@H]1C(=O)N[C@H](Cc2ccncc2)C(=O)NCCCc2ccc(F)cc2OCCN[C@@H](C2CC2)C(=O)N1C [Compound 495] was tested, and the “Velocity (FU/min)” value was 2700 FU/min.
In the case of C[C@@H]1C(=O)N[C@H](Cc2ccc(C(=N)N)cc2)C(=O)NC/C=C/c2cccc(c2)OCCN[C@@H](C2CC2)C(=O)N1C [Compound 482], the “Velocity (FU/min)” value was 2500 FU/min.
For C[C@@H]1C(=O)N[C@H](CCCN)C(=O)NCCCc2ccc(F)cc2OCCN[C@@H](C2CC2)C(=O)N1C [Compound 487], the “Velocity (FU/min)” value was 2500 FU/min.
In the case of C[C@@H]1CN[C@@H](C2CC2)C(=O)N(C)[C@H](C)C(=O)N[C@H](Cc2ccc(C(=N)N)cc2)C(=O)NCCCc2ccccc2O1 [Compound 459], the “Velocity (FU/min)” value was 140 FU/min.
With C[C@@H]1C(=O)N[C@H](Cc2c[nH]cn2)C(=O)NCCCc2ccc(F)cc2OCCN[C@@H](C2CC2)C(=O)N1C [Compound 493] the “Velocity (FU/min)” value was 2700 FU/min.
